# Data taken from patent publication US8455544B2, “Synthetic triterpenoids and methods of use in the treatment of disease” (Reata Pharmaecuticals, Inc., priority 2008, dated 2013).
# Assays:
# [1] = test system: patients with diabetic nephropathy; experiment: Hyperinsulinemic euglycemic clamp test, Phase II study; format: in vivo, human; details: after the 28 day treatment
# [2] = test system: ischemia-reperfusion induced renal damage; experiment: Mouse model of ischemic acute renal failure (ischemia-reperfusion); format: in vivo
# Method: FIGS. 1a-d—RTA 402 reduces renal damage following ischemia-reperfusion. Mice were administered RTA 402 at 2 mg/kg or simply the vehicle (sesame oil) daily by oral gavage beginning on […]. On Day 0, a clamp was placed on the left renal artery for 17 minutes and then removed to induce ischemia-reperfusion. (FIG. 1a) On Day 1, blood was collected from animals that were subjected to clamping and “sham” control animals that underwent surgery without clamping of the renal artery. Blood urea nitrogen (BUN) levels were measured as a surrogate for renal damage. (FIGS. 1b-d) Sections of kidneys from RTA 402-treated or vehicle-treated mice were scored for histological damage (FIGS. 1b & 1d) and inflammation (FIG. 1c). (FIG. 1d) Black arrows (vehicle group) show two of many severely damaged tubules in the outer medulla. Red arrows (RTA 402 group) show two of many undamaged tubules in the outer medulla.
# In a mouse model of ischemic acute renal failure, the renal artery is clamped for approximately twenty minutes. After this time, the clamp is removed and the kidney is reperfused with blood. Ischemia-reperfusion results in renal damage and decreased renal function which can be assessed by blood urea nitrogen (BUN) levels, which become elevated following renal damage. As shown in FIGS. 1a-d, surgically-induced ischemia-reperfusion increased BUN levels by approximately 2-fold.
# patients with cancer = experiment: Phase I clinical trial in patients with cancer (solid tumor study): serum creatinine, eGFR; format: in vivo, human
# Method: FIGS. 4A-B—RTA 402 reduces serum creatinine levels and increases the estimated glomerular filtration rate (eGFR) in human patients with cancer. FIG. 4A: Serum creatinine was measured in RTA 402-treated patients enrolled in a Phase I clinical trial for the treatment of cancer. The patients were administered RTA 402 (p.o.) once daily for 21 days at doses ranging from 5 to 1,300 mg/day. The percent reduction of serum creatinine relative to baseline levels is shown for the indicated study days. Significant decreases in serum creatinine levels were observed on Days 15 and 21. FIG. 4B: The estimated glomerular filtration rate (eGFR) was calculated for the patients in FIG. 4A. […] All patients: n=24; patients with baseline ≧1.5: n=5. For FIGS. 4A and 4B, * indicates p≦0.04; † indicates p=0.01, and ‡ indicates p≦0.01. Note: in FIG. 4A, “% Reduction from Baseline” on the vertical axis indicates percent change. For example, a reading of −15 on this axis indicates a 15% reduction in serum creatinine.
# FIG. 5—RTA 402 increases GFR in human patients with cancer. Estimated glomerular filtration rate (eGFR) was measured in RTA 402-treated patients enrolled in a multi-month clinical trial for the treatment of cancer. All patients (n=11) dosed through six months were included in the analysis. The dosing information for these patients is provided in Example 5, below.
# Serum creatinine has also been measured in patients with cancer enrolled in a Phase I clinical trial of RTA 402. These patients received RTA 402 once daily at doses from 5 to 1,300 mg/day for a total of twenty-one days every 28 days. A reduction in serum creatinine by greater than 15% was observed as early as eight days following treatment initiation and persisted through the end of the cycle (FIG. 4A). This reduction was maintained in those patients that received six or more cycles of treatment with RTA 402. […] In these patients, serum creatinine levels decreased progressively throughout the cycle such that the Day 21 levels were approximately 25% lower than baseline levels (FIG. 4A).
# Some of these patients were enrolled in the Phase I study, whereas others were enrolled in a study of RTA 402 (in combination with gemcitabine) in patients with pancreatic cancer.
# [3] = Serum creatinine in toxicology study, monkeys; format: in vivo, cynomolgus monkeys; details: oral, once daily for 28 days
# Method: FIGS. 3a-d—RTA 402 reduces serum creatinine levels in monkeys, dogs, and rats. (FIG. 3a) Cynomolgus monkeys were administered RTA 402 orally at the indicated doses once daily for 28 days. The percent reduction of serum creatinine on Day 28 in RTA 402-treated monkeys relative to vehicle-treated control monkeys is shown. (FIG. 3b) RTA 402 was administered orally to beagle dogs at the indicated doses daily for three months. Control animals received vehicle (sesame oil). The percent change in serum creatinine at the three-month time point relative to baseline is shown. (FIG. 3c) Sprague-Dawley rats were administered RTA 402 orally at the indicated doses once daily for a period of one month. The percent reduction of serum creatinine at study completion in RTA 402-treated rats relative to vehicle-treated control rats is shown. (FIG. 3d) Sprague-Dawley rats were administered the amorphous form of RTA 402 orally at the indicated doses once daily for a period of three months. The percent reduction of serum creatinine at study completion in RTA 402-treated rats relative to vehicle-treated control rats is shown. […] For example, a reading of −15 on this axis indicates a 15% reduction in serum creatinine.
# Serum creatinine has been measured in several animal species treated with RTA 402 in the course of toxicology studies. […]
compound,measurement,setting,value
"COC(=O)[C@]12CCC(C)(C)C[C@H]1[C@H]1C(=O)C=C3[C@@]4(C)C=C(C#N)C(=O)C(C)(C)[C@@H]4CC[C@@]3(C)[C@]1(C)CC2 [RTA 402, methyl-2-cyano-3,12-dioxooleana-1,9-dien-28-oic acid]",Glucose disposal rate (GDR),[1],improvements
same,Glucose disposal rate (GDR),"[1]; more severely impaired patients (GDR<4), p≦0.02",statistically significant improvements
same,Histological measures of kidney damage and inflammation,[2]; 2 mg/kg orally once daily,significantly improved
same,BUN levels relative to vehicle-treated animals,"[2]; 2 mg/kg orally once daily beginning two days prior to surgery, p<0.01",significantly reduced
same,Reduction in serum creatinine,"patients with cancer; 5 to 1,300 mg/day once daily for 21 days every 28 days, as early as eight days following treatment initiation",greater than 15%
same,Serum creatinine lower than baseline levels,"patients with cancer; Day 21, subset with baseline serum creatinine of at least 1.5 mg/dl",approximately 25%
same,Estimated glomerular filtration rate (eGFR),"patients with cancer; Phase I patients, 21 days",significantly improved
same,eGFR,"patients with cancer; Pt 402, dose 5 mg, cycle 1 (28 days each), BL 109.7",109.7
same,eGFR,"patients with cancer; Pt 402, dose 5 mg, cycle 2, BL 109.7",109.7
same,eGFR,"patients with cancer; Pt 402, dose 5 mg, cycle 3, BL 109.7",95.7
same,eGFR,"patients with cancer; Pt 402, dose 5 mg, cycle 4, BL 109.7",95.7
same,eGFR,"patients with cancer; Pt 402, dose 5 mg, cycle 5, BL 109.7",109.7
same,eGFR,"patients with cancer; Pt 402, dose 5 mg, cycle 6, BL 109.7",95.7
same,eGFR,"patients with cancer; Pt 406, dose 80 mg, cycle 1, BL 94.2",125.9
same,eGFR,"patients with cancer; Pt 406, dose 80 mg, cycle 2, BL 94.2",107.9
same,eGFR,"patients with cancer; Pt 406, dose 80 mg, cycle 3, BL 94.2",107.9
same,eGFR,"patients with cancer; Pt 406, dose 80 mg, cycle 4, BL 94.2",125.9
same,eGFR,"patients with cancer; Pt 406, dose 80 mg, cycle 5, BL 94.2",107.9
same,eGFR,"patients with cancer; Pt 406, dose 80 mg, cycle 6, BL 94.2",125.9
same,eGFR,"patients with cancer; Pt 408, dose 150 mg, cycle 1, BL 73.2",82.1
same,eGFR,"patients with cancer; Pt 408, dose 150 mg, cycle 2, BL 73.2",77.4
same,eGFR,"patients with cancer; Pt 408, dose 150 mg, cycle 3, BL 73.2",69.4
same,eGFR,"patients with cancer; Pt 408, dose 150 mg, cycle 4, BL 73.2",77.4
same,eGFR,"patients with cancer; Pt 408, dose 150 mg, cycle 5, BL 73.2",77.4
same,eGFR,"patients with cancer; Pt 408, dose 150 mg, cycle 6, BL 73.2",87.4
same,eGFR,"patients with cancer; Pt 409, dose 150/300 mg, cycle 1, BL 48.4",62.6
same,eGFR,"patients with cancer; Pt 409, dose 150/300 mg, cycle 2, BL 48.4",62.6
same,eGFR,"patients with cancer; Pt 409, dose 150/300 mg, cycle 3, BL 48.4",62.6
same,eGFR,"patients with cancer; Pt 409, dose 150/300 mg, cycle 4, BL 48.4",57.0
same,eGFR,"patients with cancer; Pt 409, dose 150/300 mg, cycle 5, BL 48.4",69.2
same,eGFR,"patients with cancer; Pt 409, dose 150/300 mg, cycle 6, BL 48.4",69.2
same,eGFR,"patients with cancer; Pt 410, dose 300/600 mg, cycle 1, BL 49.9",69.6
same,eGFR,"patients with cancer; Pt 410, dose 300/600 mg, cycle 2, BL 49.9",63.4
same,eGFR,"patients with cancer; Pt 410, dose 300/600 mg, cycle 3, BL 49.9",63.4
same,eGFR,"patients with cancer; Pt 410, dose 300/600 mg, cycle 4, BL 49.9",69.6
same,eGFR,"patients with cancer; Pt 410, dose 300/600 mg, cycle 5, BL 49.9",63.4
same,eGFR,"patients with cancer; Pt 410, dose 300/600 mg, cycle 6, BL 49.9",69.6
same,eGFR,"patients with cancer; Pt 421, dose 1300/900 mg, cycle 1, BL 52.5",58.6
same,eGFR,"patients with cancer; Pt 421, dose 1300/900 mg, cycle 2, BL 52.5",66.2
same,eGFR,"patients with cancer; Pt 421, dose 1300/900 mg, cycle 3, BL 52.5",75.8
same,eGFR,"patients with cancer; Pt 421, dose 1300/900 mg, cycle 5, BL 52.5",88.4
same,eGFR,"patients with cancer; Pt 421, dose 1300/900 mg, cycle 6, BL 52.5",75.8
same,eGFR,"patients with cancer; Pt 427, dose 1300 mg, cycle 1, BL 70.1",101.3
same,eGFR,"patients with cancer; Pt 427, dose 1300 mg, cycle 2, BL 70.1",78.3
same,eGFR,"patients with cancer; Pt 427, dose 1300 mg, cycle 3, BL 70.1",88.4
same,eGFR,"patients with cancer; Pt 427, dose 1300 mg, cycle 4, BL 70.1",101.3
same,eGFR,"patients with cancer; Pt 427, dose 1300 mg, cycle 5, BL 70.1",101.3
same,eGFR,"patients with cancer; Pt 427, dose 1300 mg, cycle 6, BL 70.1",101.3
same,% Serum Creatinine Decrease from Baseline,"patients with cancer; all patients, n=45, Day 21",−18.3%
same,% of Patients with Decrease on Day 21 (serum creatinine),"patients with cancer; all patients, n=45, drug for at least 3 weeks",87%
same,% of Patients with Decrease on Day 21 (serum creatinine),"patients with cancer; sub-set with elevated baseline serum creatinine levels, n=8",100%
same,% Serum Creatinine Decrease from Baseline,"patients with cancer; sub-set with elevated baseline serum creatinine levels, n=8, Day 21",−24.5%
same,Serum creatinine levels relative to control animals,[3],Significant reductions
